In patent US20040258779A1, “Dietary and pharmaceutical compositions for treatment of anemia, thrombocytopenia, and leukopenia” (priority 2003, published 2004):
Where “and” joins values, the source holds several entries; their conditions need not be identical. Equal entries are not always repeated.

Key:
[1] = Hypersensitivity of the delayed type
target cells K-562 = assay: Natural killer cell cytotoxicity on 3H-uridine labeled target cells; format: cell-based, human; conditions: for function of natural killer cells, Cytotoxicity (%): 3 hours incubation, K-562 targets, donors 1-7 and mean M
Procedure: Cells were separated after 3 hours of the incubation at 37° C. in CO2 incubator. Their cytotoxic action on the target cells K-562 labeled with ^3H-uridine was evaluated.

monocytes = assay: Active oxygen forms by monocytes, cytofluorometry; format: cell-based, human; design: formation of active oxygen forms by monocytes: unit not given here; conditions: for formation of active oxygen forms by monocytes: single donors and mean M
Procedure: (§1) This effect was evaluated by luminal dependent chemoluminiscence and cytofluorometry. In the second case the leukocytes were added to dichlorofluoroscein […]). This substance is originally non fluorescence one. However, after the penetration into the cells it is turned into green fluorochrom in the presence of the hydrogen peroxide. The reaction was monitored in the flow cytometer FACSCalibur.

[2] = tested on: leukocytes of the healthy donors; assay: Active oxygen forms by leukocytes, luminol dependent chemoluminiscence; format: cell-based, human
Procedure: This effect was evaluated by luminal dependent chemoluminiscence and cytofluorometry. In the first case leukocytes were separated by gelatin and connected with luminal, human serum and added to the vials with the different concentration of the substance.

human mononuclear cells [3] = assay: Cell longevity of mononuclear leukocytes, propidium iodide flow cytometry; format: cell-based; conditions: for cell longivity (percentage of dead cells): time not given (twofold reduction after 72 hours), donors 1-3 and mean M; for cell longevity: after 24 hours treatment; for cell longevity, protective effect: after 48 hours of incubation; for percentage of dead cells: after 72 hours of the incubation
[4] = tested on: human mononuclear blood cells; assay: TNF alpha production by human mononuclear blood cells; format: cell-based; conditions: for TNF alpha synthesis by mononuclear cells, in words: versus control samples
Procedure: PL-3 was added in concentrations of 100 μg/ml, 10 μg/ml, 1 μg/ml, and feeding media was added to the control wells. Cytokine content was defined by IFA with commercial kit […] (Cytimmune, USA).

neutrophils = assay: Active oxygen forms by neutrophils, cytofluorometry; format: cell-based, human; conditions: versus control data (p=0.08)
Procedure: as §1

human mononuclear cells [5] = assay: GM-CSF production by the human mononuclear cells; format: cell-based; conditions: for GM-CSF production by the human mononuclear cells: donors 1-7 and mean M±; for GM-CSF synthesis, in words: versus random synthesis (control), statistically significant
Procedure: PL-3 was added in concentrations of 100 μg/ml, 10 μg/ml, 1 μg/ml, and feeding media was added to the control wells. Cytokine content was defined by IFA with commercial kit […] (Cytimmune, USA). The effect of PL-3 on the synthesis of GM-CSF was evaluated accordingly to the previous method.

## CC(=O)NC1C(OC2C(CO)OC(O)C(NC(C)=O)C2OC(C)C(=O)NC(C)C(=O)NC(CCC(=O)NC(CCCC(N)C(=O)O)C(=O)NC(C)C(=O)O)C(N)=O)OC(CO)C(O)C1O [PL-3, N-acetyl-glucosamine-N-acetyl-muramyl-L-alanine-D-isoglutamine-diaminopimenic acid-D-alanine]
[1]
  hypersensitivity of the delayed type: absence of its effect
Target cells K-562; 1 μg/ml, listed as GMTP
  function of natural killer cells, Cytotoxicity (%): 45% and 56% and 41% and 37% and 55% and 63% and 48%
Target cells K-562; 1 μg/ml, listed as GMTP, mean
  function of natural killer cells, Cytotoxicity (%): 49.2%
Target cells K-562; 10 μg/ml, listed as GMTP
  function of natural killer cells, Cytotoxicity (%): 55% and 38% and 44% and 43% and 53% and 65% and 57%
Target cells K-562; 10 μg/ml, listed as GMTP, mean
  function of natural killer cells, Cytotoxicity (%): 50.7%
Target cells K-562; 100 μg/ml
  cytotoxic activity of the natural killer cells, in words: increase the cytotoxic activity
Target cells K-562; 100 μg/ml, listed as GMTP
  function of natural killer cells, Cytotoxicity (%): 56% and 55% and 49% and 51% and 66% and 54%
Target cells K-562; 100 μg/ml, listed as GMTP, mean
  function of natural killer cells, Cytotoxicity (%): 54.2%
monocytes
  generation of active oxygen forms by monocytes, in words: do not generate the active oxygen forms
monocytes; concentration 1.0 (unit not given), listed as GMTP
  formation of active oxygen forms by monocytes: 31 and 15 and 29 and 50 and 25 (2×) and 18 (2×) and 16
monocytes; concentration 1.0 (unit not given), listed as GMTP, mean
  formation of active oxygen forms by monocytes: 25.2
monocytes; concentration 10.0 (unit not given), listed as GMTP
  formation of active oxygen forms by monocytes: 29 and 14 (2×) and 18 (2×) and 13 and 32 and 17 and 15
monocytes; concentration 10.0 (unit not given), listed as GMTP, mean
  formation of active oxygen forms by monocytes: 18.9
monocytes; concentration 100.0 (unit not given), listed as GMTP
  formation of active oxygen forms by monocytes: 22 and 18 and 13 and 25 and 20 and 42 and 0.6 and 26 and 31
monocytes; concentration 100.0 (unit not given), listed as GMTP, mean
  formation of active oxygen forms by monocytes: 23.8
[2]
  ability of leukocytes to generate the active oxygen forms (chemoluminiscence), in words: did not change
interferon-γ
  interferon-γ: does not affect
Human mononuclear cells [3]; 1 μg/ml
  cell longivity (percentage of dead cells): 16 and 18
Human mononuclear cells [3]; 10 μg/ml
  cell longivity (percentage of dead cells): 16 and 21 and 17
Human mononuclear cells [3]; 10 μg/ml, mean
  cell longivity (percentage of dead cells): 18
Human mononuclear cells [3]; 100 μg/ml
  cell longivity (percentage of dead cells): 19 and 16
Human mononuclear cells [3]; 100 μg/ml, mean
  cell longivity (percentage of dead cells): 18
Human mononuclear cells [3]
  cell longevity: unchanged
  cell longevity, protective effect: weak protective effect
  percentage of dead cells: twofold reduction
[4]
  TNF alpha production in comparison with GMDP: enhanced two fold
  TNF alpha synthesis by mononuclear cells, in words: significant increase
neutrophils
  active oxygen forms, cytofluometric analysis, in words: stimulated the active oxygen forms
Human mononuclear cells [5]; 10 mkg/ml and 100 mkg/ml, p=0.029 and 0.038
  GM-CSF synthesis relative to GMDP: almost two times more
Human mononuclear cells [5]; 10 mkg/ml
  GM-CSF production by the human mononuclear cells: 1109 and 752 and 740 and 1115 and 920 and 1052
Human mononuclear cells [5]; 10 mkg/ml, mean
  GM-CSF production by the human mononuclear cells: 975 ± 282.5
Human mononuclear cells [5]
  GM-CSF synthesis, in words: strong inductors

## CC(=O)N[C@H]1[C@H](O[C@H]2[C@H](O[C@H](C)C(=O)N[C@@H](C)C(=O)N[C@H](CCC(=O)O)C(N)=O)[C@@H](NC(C)=O)C(O)O[C@@H]2CO)O[C@H](CO)[C@@H](O)[C@@H]1O (some centres unmarked) [GMDP, reference compound]
Target cells K-562; 1 μg/ml
  function of natural killer cells, Cytotoxicity (%): 51% and 49% and 38% and 44% and 50% and 47%
Target cells K-562; 10 μg/ml
  function of natural killer cells, Cytotoxicity (%): 34% and 48% and 45% and 40% and 53% and 47%
Target cells K-562; 100 μg/ml
  function of natural killer cells, Cytotoxicity (%): 33% and 48% and 46% and 44% and 50%
monocytes
  generation of active oxygen forms by monocytes, in words: do not generate the active oxygen forms
monocytes; concentration 1.0 (unit not given)
  formation of active oxygen forms by monocytes: 27 and 16 (2×) and 23 and 54 and 15 and 12 and 18 and 14
monocytes; concentration 10.0 (unit not given)
  formation of active oxygen forms by monocytes: 25 and 14 (2×) and 11 and 16 and 70 and 19 and 15 and 26
monocytes; concentration 100.0 (unit not given)
  formation of active oxygen forms by monocytes: 14 and 15 and 12 and 16 (2×) and 34 (2×) and 102 and 19.5
[2]
  ability of leukocytes to generate the active oxygen forms (chemoluminiscence), in words: did not change
Human mononuclear cells [3]; 1 μg/ml
  cell longivity (percentage of dead cells): 16 and 17 and 18
Human mononuclear cells [3]; 10 μg/ml
  cell longivity (percentage of dead cells): 17 and 23 and 21
Human mononuclear cells [3]; 100 μg/ml
  cell longivity (percentage of dead cells): 15 and 18 and 24
Human mononuclear cells [3]
  cell longevity: unchanged
  cell longevity, protective effect: weak protective effect
  percentage of dead cells: twofold reduction
[4]
  TNF alpha synthesis by mononuclear cells, in words: does not lead to the induction
neutrophils
  active oxygen forms, cytofluometric analysis, in words: does not posses this activity
Human mononuclear cells [5]; 100 mkg/ml
  GM-CSF production by the human mononuclear cells: 983 and 584 and 609 and 944 and 581 and 735 and 773
Human mononuclear cells [5]
  GM-CSF synthesis, in words: strong inductors
